US20240024273A1, “TOPICAL ADMINISTRATION OF 2-(DIETHYLAMINO)ETHYL 2-(4-ISOBUTYLPHENYL)PROPRIONATE FOR TREATMENT OF DISEASES” (TECHFIELDS PHARMA CO., LTD., priority 2020, published 2024)

System: Subjects with Osteoarthritis of the Knee
Test: Second Phase 2 study: safety (treatment-emergent adverse events)
Type: in vivo, human
Set-up: Serious Treatment-emergent Adverse Event: SAE Criteria: scale not given here
From the text: Safety assessments will be performed at each visit and will include assessment of AEs, vital signs (blood pressure, pulse rate, and oral temperature), clinical laboratories, physical examination, skin irritation, and electrocardiograms (ECGs) as indicated in the study flow chart, Table 47.
Safety assessments will include AEs, vital signs (blood pressures, pulse rate, and oral temperature), clinical laboratories, physical examination, skin irritation, and ECGs at various time points during the study as indicated in the study flow chart.
Adverse events of interest include: local skin reactions around the treated knee(s), upper stomach pain, GI bleeding, serious cardiovascular side effects (e.g., thrombotic events, myocardial infarction, or stroke), jaundice, elevated liver function tests, and nausea.
Safety analyses will be conducted on the SAS. Safety parameters will be listed and summarized using standard descriptive statistics, as appropriate. No formal statistical analyses are planned.

[1] = 4.375 mg, BID, subject 105/07/F64, abdominal aortic aneurysm
[2] = 8.75 mg, BID, subject 279/08/M66, Transient Ischemic Attack

CCN(CC)CCOC(=O)C(C)c1ccc(CC(C)C)cc1 (stereo not drawn) [2-(diethylamino)ethyl 2-(4-isobutylphenyl)propionate]
Serious Treatment-emergent Adverse Event (4.375 mg, BID, subject 105/07/F64, [aortic aneurysm] (Blood and Lymphatic System Disorders)): abdominal aortic aneurysm
Serious Treatment-emergent Adverse Event: Relationship to Study Drug [1]: Unrelated
Serious Treatment-emergent Adverse Event: SAE Criteria [1]: 1
Serious Treatment-emergent Adverse Event: Severity [1]: Severe
Serious Treatment-emergent Adverse Event: Outcome (4.375 mg, BID, subject 105/07/F64, abdominal aortic aneurysm, cell wraps: Results / in / Death): Death
GI disorders incidence rate (4.375 mg/knee BID): 4.2%
incidence rate of AEs possibly, probably, or definitely related to study drug (4.375 mg/knee BID): 33.8%
infections and infestations incidence rate (4.375 mg/knee BID): 32.4%
positive fecal occult blood test incidence rate (4.375 mg/knee BID): 7.0%
Abdominal Pain Upper: number of adverse events (4.375 mg/knee, BID, N = 71): 1
Abdominal Pain Upper: percentage of subjects with adverse events (4.375 mg/knee, BID, N = 71): 1.4%
Abdominal Pain Upper: subjects with adverse events (4.375 mg/knee, BID, N = 71): 1
Administration Site Conditions: number of adverse events (4.375 mg/knee, BID, N = 71): 1
Administration Site Conditions: percentage of subjects with adverse events (4.375 mg/knee, BID, N = 71): 1.4%
Administration Site Conditions: subjects with adverse events (4.375 mg/knee, BID, N = 71): 1
Alanine Aminotransferase Increased: number of adverse events (4.375 mg/knee, BID, N = 71): 1
Alanine Aminotransferase Increased: percentage of subjects with adverse events (4.375 mg/knee, BID, N = 71): 1.4%
Alanine Aminotransferase Increased: subjects with adverse events (4.375 mg/knee, BID, N = 71): 1
Application Site Irritation: number of adverse events (4.375 mg/knee, BID, N = 71): 1
Application Site Irritation: percentage of subjects with adverse events (4.375 mg/knee, BID, N = 71): 1.4%
Application Site Irritation: subjects with adverse events (4.375 mg/knee, BID, N = 71): 1
Aspartate Aminotransferase Increased: number of adverse events (4.375 mg/knee, BID, N = 71): 3
Aspartate Aminotransferase Increased: percentage of subjects with adverse events (4.375 mg/knee, BID, N = 71): 4.2%
Aspartate Aminotransferase Increased: subjects with adverse events (4.375 mg/knee, BID, N = 71): 3
Back Pain: number of adverse events (4.375 mg/knee, BID, N = 71): 1(%)[1]
Back Pain: subjects with adverse events, number (percentage) (4.375 mg/knee, BID, N = 71): 1(%)[1]
Blood Alkaline Phosphatase Increased: number of adverse events (4.375 mg/knee, BID, N = 71): 1
Blood Alkaline Phosphatase Increased: percentage of subjects with adverse events (4.375 mg/knee, BID, N = 71): 1.4%
Blood Alkaline Phosphatase Increased: subjects with adverse events (4.375 mg/knee, BID, N = 71): 1
Blood Bilirubin Increased: number of adverse events (4.375 mg/knee, BID, N = 71): 1
Blood Bilirubin Increased: percentage of subjects with adverse events (4.375 mg/knee, BID, N = 71): 1.4%
Blood Bilirubin Increased: subjects with adverse events (4.375 mg/knee, BID, N = 71): 1
Contusion: number of adverse events (4.375 mg/knee, BID, N = 71): 2
Contusion: subjects with adverse events, number (percentage) (4.375 mg/knee, BID, N = 71): 2(2.8%)
Cough: number of adverse events (4.375 mg/knee, BID, N = 71): 1
Cough: subjects with adverse events, number (percentage) (4.375 mg/knee, BID, N = 71): 1(1.4%)
Ear Pain: number of adverse events (4.375 mg/knee, BID, N = 71): 1(%)[1]
Ear Pain: subjects with adverse events (4.375 mg/knee, BID, N = 71): 1(%)[1]
Ear and Labyrinth Disorders: number of adverse events (4.375 mg/knee, BID, N = 71): 1
Ear and Labyrinth Disorders: percentage of subjects with adverse events (4.375 mg/knee, BID, N = 71): 1.4%
Ear and Labyrinth Disorders: subjects with adverse events (4.375 mg/knee, BID, N = 71): 1
Fall: number of adverse events (4.375 mg/knee, BID, N = 71): 1
Fall: subjects with adverse events, number (percentage) (4.375 mg/knee, BID, N = 71): 1(1.4%)
Frequency of Positive Fecal Occult Blood Test (4.375 mg/knee, BID, N = 71): 6
Gamma-Glutamyltransferase Increased: number of adverse events (4.375 mg/knee, BID, N = 71): 2
Gamma-Glutamyltransferase Increased: percentage of subjects with adverse events (4.375 mg/knee, BID, N = 71): 2.8%
Gamma-Glutamyltransferase Increased: subjects with adverse events (4.375 mg/knee, BID, N = 71): 2
Gastrointestinal Disorders: number of adverse events (4.375 mg/knee, BID, N = 71): 3
Gastrointestinal Disorders: percentage of subjects with adverse events (4.375 mg/knee, BID, N = 71): 4.2%
Gastrointestinal Disorders: subjects with adverse events (4.375 mg/knee, BID, N = 71): 3
Headache: number of adverse events (4.375 mg/knee, BID, N = 71): 1
Headache: subjects with adverse events, number (percentage) (4.375 mg/knee, BID, N = 71): 1(1.4%)
Hypercholesterolaemia: number of adverse events (4.375 mg/knee, BID, N = 71): 1
Hypercholesterolaemia: percentage of subjects with adverse events (4.375 mg/knee, BID, N = 71): 1.4%
Hypercholesterolaemia: subjects with adverse events (4.375 mg/knee, BID, N = 71): 1
Hypertension: number of adverse events (4.375 mg/knee, BID, N = 71): 1
Hypertension: percentage of subjects with adverse events (4.375 mg/knee, BID, N = 71): 1.4%
Hypertension: subjects with adverse events (4.375 mg/knee, BID, N = 71): 1
Hypertriglyceridemia: number of adverse events (4.375 mg/knee, BID, N = 71): 6
Hypertriglyceridemia: percentage of subjects with adverse events (4.375 mg/knee, BID, N = 71): 7.0%
Hypertriglyceridemia: subjects with adverse events (4.375 mg/knee, BID, N = 71): 5
Infections and Infestations: number of adverse events (4.375 mg/knee, BID, N = 71): 24
Infections and Infestations: subjects with adverse events, number (percentage) (4.375 mg/knee, BID, N = 71): 23(32.4%)
Influenza: number of adverse events (4.375 mg/knee, BID, N = 71): 3
Injury, Poisoning and Procedural Complications: number of adverse events (4.375 mg/knee, BID, N = 71): 3
Investigations: number of adverse events (4.375 mg/knee, BID, N = 71): 11
Investigations: percentage of subjects with adverse events (4.375 mg/knee, BID, N = 71): 15.5%
Investigations: subjects with adverse events (4.375 mg/knee, BID, N = 71): 11
Metabolism and Nutrition Disorders: number of adverse events (4.375 mg/knee, BID, N = 71): 7
Metabolism and Nutrition Disorders: percentage of subjects with adverse events (4.375 mg/knee, BID, N = 71): 8.5%
Metabolism and Nutrition Disorders: subjects with adverse events (4.375 mg/knee, BID, N = 71): 6
Musculoskeletal Pain: number of adverse events (4.375 mg/knee, BID, N = 71): 1(%)[1]
Musculoskeletal Pain: subjects with adverse events, number (percentage) (4.375 mg/knee, BID, N = 71): 1(%)[1]
Musculoskeletal and Connective Tissue Disorders, Overall Total: number of adverse events (4.375 mg/knee, BID, N = 71): 3
Neck Pain: number of adverse events (4.375 mg/knee, BID, N = 71): 1(%)[1]
Neck Pain: subjects with adverse events, number (percentage) (4.375 mg/knee, BID, N = 71): 1(%)[1]
Nervous System Disorders: number of adverse events (4.375 mg/knee, BID, N = 71): 1
Nervous System Disorders: subjects with adverse events, number (percentage) (4.375 mg/knee, BID, N = 71): 1(1.4%)
Oropharyngeal Pain: number of adverse events (4.375 mg/knee, BID, N = 71): 2
Oropharyngeal Pain: subjects with adverse events, number (percentage) (4.375 mg/knee, BID, N = 71): 2(1.4%)
Rash: number of adverse events (4.375 mg/knee, BID, N = 71): 1
Rash: percentage of subjects with adverse events (4.375 mg/knee, BID, N = 71): 1.4%
Rash: subjects with adverse events (4.375 mg/knee, BID, N = 71): 1
Respiratory, Thoracic and Mediastinal Disorders: number of adverse events (4.375 mg/knee, BID, N = 71): 6
Respiratory, Thoracic and Mediastinal Disorders: subjects with adverse events, number (percentage) (4.375 mg/knee, BID, N = 71): 6(8.5%)
Rhinorrhoea: number of adverse events (4.375 mg/knee, BID, N = 71): 1
Rhinorrhoea: subjects with adverse events, number (percentage) (4.375 mg/knee, BID, N = 71): 1(1.4%)
Skin Irritation: number of adverse events (4.375 mg/knee, BID, N = 71): 1
Skin Irritation: percentage of subjects with adverse events (4.375 mg/knee, BID, N = 71): 1.4%
Skin Irritation: subjects with adverse events (4.375 mg/knee, BID, N = 71): 1
Skin and Subcutaneous Tissue Disorders: number of adverse events (4.375 mg/knee, BID, N = 71): 2
Skin and Subcutaneous Tissue Disorders: percentage of subjects with adverse events (4.375 mg/knee, BID, N = 71): 2.8%
Skin and Subcutaneous Tissue Disorders: subjects with adverse events (4.375 mg/knee, BID, N = 71): 2
Subjects with Positive Fecal Occult Blood Test (4.375 mg/knee, BID, N = 71): 5
Subjects with Positive Fecal Occult Blood Test, percentage (4.375 mg/knee, BID, N = 71): 7.0%
Throat Irritation: number of adverse events (4.375 mg/knee, BID, N = 71): 2
Throat Irritation: subjects with adverse events, number (percentage) (4.375 mg/knee, BID, N = 71): 2(2.8%)
Toothache: number of adverse events (4.375 mg/knee, BID, N = 71): 2
Toothache: percentage of subjects with adverse events (4.375 mg/knee, BID, N = 71): 2.8%
Toothache: subjects with adverse events (4.375 mg/knee, BID, N = 71): 2
Transaminases Increased: number of adverse events (4.375 mg/knee, BID, N = 71): 1
Transaminases Increased: percentage of subjects with adverse events (4.375 mg/knee, BID, N = 71): 1.4%
Transaminases Increased: subjects with adverse events (4.375 mg/knee, BID, N = 71): 1
Upper Respiratory Tract Infection: number of adverse events (4.375 mg/knee, BID, N = 71): 12
Urinary Tract Infection: number of adverse events (4.375 mg/knee, BID, N = 71): 8
Urinary Tract Infection: subjects with adverse events, number (percentage) (4.375 mg/knee, BID, N = 71): 8(11.3%)
Vascular Disorders: number of adverse events (4.375 mg/knee, BID, N = 71): 1
Vascular Disorders: percentage of subjects with adverse events (4.375 mg/knee, BID, N = 71): 1.4%
Vascular Disorders: subjects with adverse events (4.375 mg/knee, BID, N = 71): 1
White Blood Cell Count Decreased: number of adverse events (4.375 mg/knee, BID, N = 71): 2
White Blood Cell Count Decreased: percentage of subjects with adverse events (4.375 mg/knee, BID, N = 71): 2.8%
White Blood Cell Count Decreased: subjects with adverse events (4.375 mg/knee, BID, N = 71): 2
Serious Treatment-emergent Adverse Event: Duration [2]: < 11 days
Serious Treatment-emergent Adverse Event: SAE Criteria [2]: 6
Serious Treatment-emergent Adverse Event: Severity [2]: Severe
Serious Treatment-emergent Adverse Event: Relationship to Study Drug (8.75 mg, BID, subject 279/08/M66, Transient Ischemic Attack, cell wraps: Possible / unrelated): Possible
Serious Treatment-emergent Adverse Event: Outcome (8.75 mg, BID, subject 279/08/M66, Transient Ischemic Attack, cell wraps: Recovered/ resolved): Recovered/
Serious Treatment-emergent Adverse Event (8.75 mg, BID, subject 279/08/M66, [Thrombosis] (Vascular Disorders)): Transient Ischemic Attack
GI disorders incidence rate (8.75 mg/knee (BID)): 14.3%
incidence rate of AEs possibly, probably, or definitely related to study drug (8.75 mg/knee (BID)): 41.4%
infections and infestations incidence rate (8.75 mg/knee (BID)): 28.6%
positive fecal occult blood test incidence rate (8.75 mg/knee (BID)): 7.1%
Abdominal Discomfort: number of adverse events (8.75 mg/knee, BID, N = 70): 4
